Data on twelve compounds can be found in PubChem BioAssay (NCI).

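A five-concentration, 48-hour dose response in 96-well plates underlies each endpoint, interpolated linearly between surrounding concentrations. Abbreviation: GI50, concentration required for 50% inhibition of growth. TGI: concentration producing complete growth inhibition.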 A value given as a limit tells only on which side of the number the result lay.

Among the test systems are SR leukemia; KM12 colon; SK-MEL-28 melanoma; SF-295 CNS; OVCAR-4 ovarian; COLO 205 colon; TK-10 renal; SNB-19 CNS; OVCAR-8 ovarian; OVCAR-3 ovarian.
Assay in all cases: NCI-60 cell line screen, 48 h

Turning to `O=C(O)[C@H]1NC[C@@H]2ON=C(Br)[C@@H]21`, the TGI in the assay on SR leukemia, in the assay with KM12 colon, with SK-MEL-28 melanoma, in the assay on SF-295 CNS, in the assay on OVCAR-4 ovarian and in the assay on COLO 205 colon was above 100 µM each time. The TGI with TK-10 renal, in the assay with SNB-19 CNS, in the assay with OVCAR-8 ovarian and in the assay on OVCAR-3 ovarian was above 100 µM throughout.

Turning to `CCNC(=O)CCCCC(=O)c1c(C)[nH]c(/C=C2\N=C(c3ccc[nH]3)C=C2OC)c1C`, the GI50 in the assay with SR leukemia is 1.65 µM; in the assay with KM12 colon it was 2.17 µM; with SK-MEL-28 melanoma, 1.66 µM; with SF-295 CNS it was 2.81 µM; in the assay with OVCAR-4 ovarian, 1.76 µM; in the assay with COLO 205 colon, 1.97 µM. For the same compound, the GI50 was 2.37 µM with TK-10 renal, 6.74 µM in the assay on SNB-19 CNS, 2.96 µM in the assay on OVCAR-8 ovarian and 1.85 µM in the assay with OVCAR-3 ovarian. The TGI in the assay on SR leukemia was found to be 32.8 µM; in the assay on KM12 colon it was 4.79 µM; in the assay on SK-MEL-28 melanoma, 3.09 µM; in the assay with SF-295 CNS, 7.6 µM; in the assay with OVCAR-4 ovarian, 4.36 µM; in the assay with COLO 205 colon, 3.65 µM. Further, the TGI in the assay on TK-10 renal worked out at 5.37 µM; with SNB-19 CNS, 19.2 µM; with OVCAR-8 ovarian, 7.73 µM; in the assay with OVCAR-3 ovarian it was 3.67 µM.

Regarding `COc1ccc(-c2cc(-c3ccc(Nc4ccnc5cc(C(F)(F)F)ccc45)cc3)[nH]c(=O)c2C#N)cc1`, the TGI in the assay with SR leukemia was above 100 µM; in the assay with KM12 colon it was above 100 µM; in the assay on SK-MEL-28 melanoma it was above 100 µM; in the assay with SF-295 CNS, above 57.6 µM; in the assay on OVCAR-4 ovarian, above 100 µM; with COLO 205 colon, above 63.7 µM. Moreover, the TGI with TK-10 renal was above 68.2 µM; in the assay with SNB-19 CNS it was 56.7 µM; with OVCAR-8 ovarian, above 100 µM; in the assay with OVCAR-3 ovarian, above 100 µM.

For the compound `CCOC(=O)c1ccc2c(=O)n3c(C(=O)OCC)ccc3c(=O)n12`, the TGI in the assay with SR leukemia, in the assay with KM12 colon, with SK-MEL-28 melanoma, with SF-295 CNS, in the assay on OVCAR-4 ovarian and in the assay on COLO 205 colon was above 100 µM in each case. For the same compound, the TGI with TK-10 renal, in the assay with SNB-19 CNS, with OVCAR-8 ovarian and in the assay with OVCAR-3 ovarian was above 100 µM in each case.

For the compound `Nc1ccc(S(=O)(=O)c2ccc(N=[N+]([O-])c3ccc(S(=O)(=O)c4ccc(N)cc4)cc3)cc2)cc1`, the TGI in the assay with SR leukemia was above 100 µM; in the assay on KM12 colon it was above 100 µM; in the assay with SK-MEL-28 melanoma it was above 100 µM; in the assay on SF-295 CNS it was above 100 µM; with OVCAR-4 ovarian, above 62.6 µM; with COLO 205 colon, above 100 µM. Besides, the TGI in the assay with TK-10 renal is above 88 µM; in the assay with SNB-19 CNS, above 72.3 µM; in the assay with OVCAR-8 ovarian, above 100 µM; in the assay on OVCAR-3 ovarian, above 56 µM.

Turning to `CC(Nc1cc(=O)n(C)c(=O)[nH]1)c1ccccc1` (stereo not given), the TGI in the assay on SR leukemia, in the assay with KM12 colon, with SK-MEL-28 melanoma, in the assay on SF-295 CNS, with OVCAR-4 ovarian and with COLO 205 colon was above 100 µM in each case. Also, the TGI in the assay with TK-10 renal, with SNB-19 CNS, with OVCAR-8 ovarian and in the assay on OVCAR-3 ovarian was above 100 µM throughout.

Consider `Cc1noc(C)c1N=Nc1ccc2nonc2c1N`, for which the TGI in the assay with SR leukemia, in the assay on KM12 colon, with SK-MEL-28 melanoma, with SF-295 CNS, in the assay on OVCAR-4 ovarian and in the assay with COLO 205 colon was above 100 µM throughout. Besides, the TGI in the assay with TK-10 renal, in the assay on SNB-19 CNS, in the assay on OVCAR-8 ovarian and in the assay with OVCAR-3 ovarian was above 100 µM each time.

For the compound `O=C(Cc1ccccc1)NN1C(=O)C(Cl)C1c1ccccc1` (stereo not given), the TGI in the assay on SR leukemia was 55.3 µM; with KM12 colon, above 100 µM; in the assay on SK-MEL-28 melanoma, above 100 µM; in the assay with SF-295 CNS, above 100 µM; with OVCAR-4 ovarian, above 100 µM; in the assay on COLO 205 colon it was above 100 µM. The TGI in the assay with TK-10 renal, in the assay with SNB-19 CNS, in the assay on OVCAR-8 ovarian and in the assay on OVCAR-3 ovarian was above 100 µM in each case.

As to `COC(=O)C1=C2Nc3ccccc3C23CCN2C(O)C4(CC5CC67CCOC6CCN6CCC8(c9cccc(OC)c9N(C4)C58O)C67)C4OCCC4(C1)C23` (stereo not given), the TGI with SR leukemia, in the assay with KM12 colon, in the assay with SK-MEL-28 melanoma, with SF-295 CNS, in the assay with OVCAR-4 ovarian and in the assay with COLO 205 colon was above 100 µM in each case. Besides, the TGI was above 100 µM in the assay with TK-10 renal, above 100 µM in the assay on SNB-19 CNS, 61.3 µM with OVCAR-8 ovarian and above 100 µM with OVCAR-3 ovarian.

Regarding `COC(=O)C1(Cc2ccc3c(c2)CCC3)Cc2cc3c(cc2C1=O)CCC3` (stereo not given), the TGI was 33 µM with SR leukemia; above 46.4 µM in the assay on KM12 colon; above 46.4 µM in the assay with SK-MEL-28 melanoma; above 46.4 µM in the assay with SF-295 CNS; above 46.4 µM with OVCAR-4 ovarian; 29.2 µM in the assay with COLO 205 colon. The TGI in the assay with TK-10 renal, with SNB-19 CNS, in the assay with OVCAR-8 ovarian and with OVCAR-3 ovarian was above 46.4 µM throughout.

Consider `CC(C)=CCC[C@@H](C)C1=C(O)C(Nc2ccccc2F)=C(C)C(=O)C1=O`, for which the TGI was above 100 µM with SR leukemia; above 100 µM in the assay on KM12 colon; above 100 µM in the assay with SK-MEL-28 melanoma; 30.4 µM in the assay with SF-295 CNS; above 100 µM with OVCAR-4 ovarian; above 68.9 µM in the assay with COLO 205 colon. The TGI in the assay with TK-10 renal is above 100 µM; in the assay with SNB-19 CNS, above 100 µM; in the assay on OVCAR-8 ovarian it was above 100 µM; in the assay on OVCAR-3 ovarian, above 30.4 µM.

`C/C=C/COc1cc(NC(=S)c2ccoc2C)ccc1OC`: the TGI with SR leukemia, with KM12 colon, in the assay on SK-MEL-28 melanoma, with SF-295 CNS, in the assay with OVCAR-4 ovarian and with COLO 205 colon was above 100 µM throughout. Also, the TGI in the assay with TK-10 renal, in the assay on SNB-19 CNS, in the assay with OVCAR-8 ovarian and in the assay with OVCAR-3 ovarian was above 100 µM throughout.
